Laboratory results published in US9040091B2 (priority 2012, dated 2015).

Legend:
[1] = Single dose pharmacokinetic testing, DTPA in blood of male beagle dogs; format: in vivo; conditions: 72 hours post-dose
Experimental: The objective of this study was to evaluate the concentration of DTPA in blood following a single administration with either Zn-DTPA injectable solution or NanoDTPA capsules using male beagle dogs. Single dose pharmacokinetic (PK) testing groups of Zn-DTPA solution vs. NanoDTPA capsules included nine study groups used for the PK testing. Zn-DTPA solution was delivered intravenously (IV) and by mouth (per os, PO) and NanoDTPA capsules were administered PO. […] Three formulations of NanoDTPA capsules were tested to examine different formulations of NanoDTPA powder and different capsule sizes. The dose for each NanoDTPA capsule formulation was either two or six capsules and the calculated DTPA doses confirmed based on the amount of DTPA in the capsules and body weight.

[2] = Americium-241 decorporation in dogs (urine, feces, tissue Am-241); format: in vivo, beagle dogs; conditions: daily dosing days 1-14, Zn-DTPA IV 15 mg/kg, NanoDTPA 1, 2 or 6 capsules/day or 2 capsules twice/day
Description: The objective of this study was to evaluate the dose-related efficacy of daily doses of NanoDTPA capsules in male and female beagle dogs intravenously (IV) administered a soluble citrate complex of americium-241 (Am-241). Twenty-four (24) male and female beagle dogs underwent a 14-day quarantine period for acclimation. Once released from quarantine, animals were weighed and randomized into study animals or spares. The average body weight of study animals was 8.6±0.9 kg (males 9.0±1.0 kg; females 8.2±0.7 kg). After randomization, animals were acclimated to metabolism cages for 24 hours prior to radionuclide administration. Animals received a single IV administration of 241Am(III)-citrate on Day 0. One day after radionuclide administration, one of four different doses of NanoDTPA capsules [1, 2, or 6-capsules/day or 2 capsules twice/day], IV Zn-DTPA [15 mg/kg] as a positive control, or IV saline as a placebo were administered. NanoDTPA capsules, IV Zn-DTPA, or IV saline was administered on study days 1-14. Urine and feces were collected daily. Animals were euthanized on day 21 and tissues collected. Urine, fecal, and tissue samples were analyzed for Am-241 content.

[3] = Americium-241 decorporation in rats (tissue levels and excretion); format: in vivo; conditions: NanoDTPA capsules PO 60 mg/kg DTPA; for liver total Am-241 activity: rat liver, Zn-DTPA IV 15 mg/kg DTPA, per 200 ul homogenized tissue
Experimental: The decorporation and excretion properties in rodents of oral NanoDTPA capsules at 60 mg/kg DTPA according to the present disclosure was compared to IV Zn-DTPA solution at 15 mg/kg DTPA, which is the currently licensed product available to the public. The studies were designed to provide data that systemic Am-241 at a single low dose followed by oral NanoDTPA capsules can provide a sufficient radiation dose reduction as an efficacy endpoint. All DTPA dosing was initiated 24 hours post-exposure to isotope (Am-241) in this set of studies to simulate a realistic emergency response time following exposure. Two sets of measurements were made: (1) internal tissue levels at 2, 4, and 7 days vs. (2) daily excreted concentrations in urine and feces.
There was a general trend of tissue reduction in all groups over the 3, 5, and 8 day observation period. All data are expressed as total Am-241 activity in nCi per 200 ul blood, homogenized tissue, or output (urine and feces).

[4] = Solubility of DTPA in neutral pH buffer, with and without zinc acetate; format: physicochemical
Experimental: As used herein, the terms “poorly absorbed drug,” “drug having low solubility,” and the like refer to a drug (in its neutral (i.e., uncharged) state) having a water solubility in neutral pH buffer of less than about 20 mg/ml. […] Thus, as used herein, DTPA (including DTPA and its salts, hydrates, solvates, complexes, etc.) is a poorly absorbed drug. […] In some embodiments, the present disclosure provides a pharmaceutical composition comprising a composition with improved aqueous solubility comprising a DTPA and zinc acetate composition of the present disclosure.

For `O=C([O-])CN(CCN(CC(=O)[O-])CC(=O)[O-])CCN(CC(=O)[O-])CC(=O)[O-].[Na+].[Na+].[Na+].[Zn+2]` [Zn-DTPA], the percent bioavailability ([1]; PO 6 mg DTPA/kg) was 12.26%, the percent bioavailability ([1]; PO 60 mg DTPA/kg) was 12.67% and the “Am-241 activity excreted in the urine compared to the saline placebo” value [2] was “approximately 9.4 times”. The “liver total Am-241 activity” value ([3]; after 2 doses, dosing from 24 h post-exposure) was 116.37+/−26.90 nCi, the “liver total Am-241 activity” value ([3]; after 4 doses) was 81.70+/−11.53 nCi and the “liver total Am-241 activity” value ([3]; after 7 doses) was 55.42+/−19.68 nCi. For the same compound, the “tissue Am-241 concentrations compared to control animals receiving no DTPA treatment” value ([3]; rats, Zn-DTPA IV 15 mg/kg) was “significantly lower”.

With `O=C(O)CN(CCN(CC(=O)O)CC(=O)O)CCN(CC(=O)O)CC(=O)O` [DTPA, diethylenetriaminepentaacetate] the “increase of the solubility of DTPA” value ([4]; about 10 mg/ml zinc acetate) was “about 35%”, the “solubility of DTPA with zinc acetate” value ([4]; about 10 mg/ml zinc acetate) was “about 23.3 mg/ml” and the “increase of the solubility of DTPA” value ([4]; about 20 mg/ml zinc acetate) was “about 83%”. The “solubility of DTPA with zinc acetate” value ([4]; about 20 mg/ml zinc acetate) was “about 31.5 mg/ml” and the “solubility in neutral pH buffer” value ([4]; neutral pH buffer, no additive) was under 17.2 mg/ml.
